Measurements reported in patent US11485744B2, “High penetration prodrug compositions of antimicrobials and antimicrobial-related compounds” (priority 2009, dated 2022).

Experiments:
[1] = In vitro penetration across isolated human skin in modified Franz cells
Method: Penetration rates of HPPs and their parent drugs through human skin were measured in vitro by modified Franz cells. A Franz cell had two chambers, the top sample chamber and the bottom receiving chamber. The human skin tissue (360-400 μm thick) that separated the top and the receiving chambers was isolated from the anterior or posterior thigh areas.
A test compound (2 mL, 10% in 0.2 M phosphate buffer, pH 7.4) was added to the sample chamber of a Franz cell. The receiving chamber contained 10 ml of 0.2 M phosphate buffer which was stirred at 600 rpm. The amount of the tested compound penetrating the skin was determined by high-performance liquid chromatography (HPLC) method.

[2] = Conversion of HPPs to parent drugs in human plasma (half life); type: in vitro ADME; conditions: for half-life at 9.1 mg/mL: pH 7.4
Method: HPPs of antimicrobials or antimicrobial-related compounds converted to the parent antimicrobials or antimicrobial-related compounds quickly in good yield in human plasma.
A HPP of antimicrobial or antimicrobial-related compound (10 mg) was dissolved in 0.1 ml of 0.2M pH 7.4 phosphate buffer. 1 ml of human plasma, preheated to 37° C., was added into the mixture. The mixture was kept in a water bath at 37° C., and at every 2 min intervals 0.2 ml of samples were withdrawn and added to 0.4 ml of methanol to precipitate the plasma protein.

[3] = mouse, in vivo
Method: In vivo rates of penetration of HPPs of beta-lactam antibiotics through skin and blood-brain barrier of intact hairless mice were studied. […] After 2 hours, the mice were killed. 5 ml of methanol was added to 1 g of homogenized blood, liver, kidney, muscle, or brain. The samples were centrifuged for 5 min and analyzed by HPLC (Table 2).

CCN(CC)CCOC(=O)C1=C(CSc2nnnn2C)CSC2C(NC(=O)C(O)c3ccccc3)C(=O)N12.Cl (stereo not drawn) [7-[(hydroxyphenylacetyl)amino]-3-[[(1-methyl-1H-tetrazol-5-yl)thio]methyl]-8-oxo-5-thia-1-azabicyclo[4.2.0]oct-2-ene-2-carboxylic acid 2-diethylaminoethyl ester hydrochloride]
In vitro Penetration Rate (apparent flux), HPPs ([1]; human, 10 %, pH 7.4): 0.75 ± 0.05 mg/cm^2/h | half-life at 9.1 mg/mL ([2]; human, plasma): 10 min

CCN(CC)CCOC(=O)C1N2C(=O)C(NC(=O)[C@H](NC(=O)N3CCN(CC)C(=O)C3=O)c3ccccc3)C2SC1(C)C.Cl (stereo partly drawn) [6-D(−)-α-(4-ethyl-2,3-dioxo-1-piperazinylcarbonylamino)-α-phenylacetamidopenicillinic acid 2-diethylaminoethyl ester hydrochloride]
In vitro Penetration Rate (apparent flux), HPPs ([1]; pH 7.4): 0.74 ± 0.08 mg/cm^2/h | Half life of HPPs in plasma ([2]; human plasma, 37° C.): 15 ± 1 min

C=CCSCC(=O)NC1C(=O)N2C1SC(C)(C)C2C(=O)OCCN(CC)CC.Cl (stereo not drawn) [allylmercaptomethylpenicillinic acid 2-diethylaminoethyl ester hydrochloride]
Half life of HPPs in plasma ([2]; human, plasma): 8 ± 1 min

Cc1onc(-c2ccccc2)c1C(=O)N[C@@H]1C(=O)N2[C@@H]1SC(C)(C)[C@@H]2C(=O)O [Oxacillin, reference compound]
drug detected in blood, liver, kidney, muscle or brain of mice treated with only the parent drug [3]: No drug was detected | In vitro Penetration Rate (apparent flux), Parent compounds ([1]; human, 10 %, pH 7.4): <0.001 mg/cm^2/h

CCN(CC)CCOC(=O)C1=C(Cl)CSC2C(NC(=O)C(NC(C)=O)c3ccccc3)C(=O)N12.Cl (stereo not drawn) [7-[(acetylaminophenylacetyl)amino]-3-chloro-8-oxo-5-thia-1-azabicyclo[4.2.0]oct-2-ene-2-carboxylic acid 2-diethylaminoethyl ester hydrochloride]
In vitro Penetration Rate (apparent flux), HPPs ([1]; human, 10 %, pH 7.4): 0.71 ± 0.05 mg/cm^2/h | half-life at 9.1 mg/mL ([2]; human, plasma): 8 min

C=CC1=C(C(=O)OCCN(CC)CC)N2C(=O)C(NC(=O)/C(=N\OCC(=O)OCC)c3csc(NC(C)=O)n3)C2SC1.Cl (stereo not drawn) [7-[2-(2-acetylamino-4-thiazolyl)-2-((Z)-ethoxycarbonylmethoxy)imino]acetamido]-3-(vinyl)-8-oxo-5-thia-1-azabicyclo[4.2.0]oct-2-ene-2-carboxylic acid 2-diethylaminoethyl ester hydrochloride]
In vitro Penetration Rate (apparent flux), HPPs ([1]; pH 7.4): 0.58 ± 0.05 mg/cm^2/h | Half life of HPPs in plasma ([2]; human plasma, 37° C.): 9 ± 1 min

CCN(CC)CCOC(=O)C1N2C(=O)C(NC(=O)[C@H](NC(=O)N3CCNC3=O)c3ccccc3)C2SC1(C)C.Cl (stereo partly drawn) [D-α-[(imidazolidin-2-on-1-yl)carbonylamino]benzylpenicillin 2-diethylaminoethyl ester hydrochloride]
Half life of HPPs in plasma ([2]; human, plasma): 9 ± 1 min

CCN(CC)CCOC(=O)C1N2C(=O)C(NC(=O)c3c(-c4c(Cl)cccc4Cl)noc3C)C2SC1(C)C.Cl (stereo not drawn) [6-[3-(2,6-dichlorophenyl)-5-methyl-4-isoxazolecarboxamido]penicillinic acid 2-diethylaminoethyl ester hydrochloride]
Half life of HPPs in plasma ([2]; human, plasma): 12 ± 1 min

CCN(CC)CCOC(=O)C1=C(COC)CSC2C(NC(=O)/C(=N\OC)c3csc(NC(C)=O)n3)C(=O)N12.Cl (stereo not drawn) [7-[2-(2-acetylamino-4-thiazolyl)-2-((Z)-methoxyimino)acetamido]-3-(methoxymethyl)-8-oxo-5-thia-1-azabicyclo[4.2.0]oct-2-ene-2-carboxylic acid 2-diethylaminoethyl ester hydrochloride]
In vitro Penetration Rate (apparent flux), HPPs ([1]; human, 10 %, pH 7.4): 0.51 ± 0.03 mg/cm^2/h | half-life at 9.1 mg/mL ([2]; human, plasma): 8 min

CCN(CC)CCOC(=O)C1=C(CSc2nnnn2C)CSC2C(NC(=O)C(NC(=O)N3CCN(CC)C(=O)C3=O)c3ccc(OC(C)=O)cc3)C(=O)N12.Cl (stereo not drawn) [7-[[[[(4-ethyl-2,3-dioxo-1-piperazinyl)carbonyl]amino](4-acetoxyphenyl)acetyl]amino]-3-[[(1-methyl-1H-tetrazol-5-yl)thio]methyl]-8-oxo-5-thia-1-azabicyclo[4.2.0]oct-2-ene-2-carboxylic acid 2-diethylaminoethyl ester hydrochloride]
In vitro Penetration Rate (apparent flux), HPPs ([1]; human, 10 %, pH 7.4): 0.57 ± 0.04 mg/cm^2/h | half-life at 9.1 mg/mL ([2]; human, plasma): 12 min

CCN(CC)CCOC(=O)C1=C(COC(C)=O)CSC2C(NC(=O)Cc3cccs3)C(=O)N12.Cl (stereo not drawn) [7-(2-thienylacetamido)cephalosporanic acid 2-diethylaminoethyl ester hydrochloride]
In vitro Penetration Rate (apparent flux), HPPs ([1]; pH 7.4): 0.62 ± 0.06 mg/cm^2/h | Half life of HPPs in plasma ([2]; human plasma, 37° C.): 9 ± 1 min

CCN(CC)CCOC(=O)C1N2C(=O)[C@@H](NC(=O)C(NC(=O)N3CCN(S(C)(=O)=O)C3=O)c3ccccc3)C2SC1(C)C.Cl (stereo partly drawn) [6R-[2-[3-(methylsulfonyl)-2-oxo-1-imidazolidinecarboxamido]-2-phenylacetamido]penicillinic acid 2-diethylaminoethyl ester hydrochloride]
Half life of HPPs in plasma ([2]; human, plasma): 13 ± 1 min

CCN(CC)CCOC(=O)C1=C(COC(N)=O)CSC2N1C(=O)C2(NC(=O)Cc1cccs1)OC.Cl (stereo not drawn) [3-[[(aminocarbonyl)oxy]methyl]-7-methoxy-8-oxo-7-[(2-thienylacetyl)amino]-5-thia-1-azabicyclo[4.2.0]oct-2-ene-2-carboxylic acid 2-diethylaminoethyl ester hydrochloride]
In vitro Penetration Rate (apparent flux), HPPs ([1]; human, 10 %, pH 7.4): 0.61 ± 0.05 mg/cm^2/h | half-life at 9.1 mg/mL ([2]; human, plasma): 7 min

Cl.O=C(NCP(=O)(OCCN1CCCCC1)Oc1cccnc1)OCc1ccccc1 (stereo not drawn) [[(N-benzyloxycarbonylamino)methyl]-phosphonic acid (3-pyridinyl)(1-piperidineethyl) ester•HCl salt]
In vitro Penetration Rate (apparent flux), HPPs of beta-lactamases inhibitors ([1]; Table 1b, isolated human skin, Franz cells, 10% in 0.2 M phosphate buffer pH 7.4, n=5): 0.25 ± 0.04 mg/cm^2/h

CCN(CC)CCOC(=O)C1=C(COC(C)=O)CSC2C(NC(=O)C(=NOC)c3csc(NC(C)=O)n3)C(=O)N12.Cl (stereo not drawn) [3-[(acetyloxy)methyl]-7-[[(2-acetylamino-4-thiazolyl)(methoxyimino)acetyl]amino]-8-oxo-5-thia-1-azabicyclo[4.2.0]oct-2-ene-2-carboxylic acid 2-diethylaminoethyl ester hydrochloride]
In vitro Penetration Rate (apparent flux), HPPs ([1]; human, 10 %, pH 7.4): 0.73 ± 0.06 mg/cm^2/h | half-life at 9.1 mg/mL ([2]; human, plasma): 10 min

CC1(C)SC2C(NC(=O)C(NC(=O)N3CCN(S(C)(=O)=O)C3=O)c3ccccc3)C(=O)N2C1C(=O)OCCN1CCCC1.Cl (stereo not drawn) [6R-[2-[3-(methylsulfonyl)-2-oxo-1-imidazolidinecarboxamido]-2-phenylacetamido]penicillinic acid 1-pyrrolidineethyl ester hydrochloride]
In vitro Penetration Rate (apparent flux), HPPs ([1]; pH 7.4): 0.79 ± 0.07 mg/cm^2/h

N[C@@H](C(=O)N[C@@H]1C(=O)N2C(C(=O)O)=C(Cl)CS[C@H]12)c1ccccc1 [Cefaclor, reference compound]
In vitro Penetration Rate (apparent flux), Parent compounds ([1]; human, 10 %, pH 7.4): <0.016 mg/cm^2/h

CCOC(=O)Cn1nnnc1SCC1=C(C(=O)OCCN(CC)CC)N2C(=O)C(NC(=O)Cc3ccccc3CNC(C)=O)C2SC1.Cl (stereo not drawn) [7-[[[2-(acetylaminomethyl)phenyl]acetyl]amino]-3-[[[1-(ethoxylcarbonylmethyl)-1H-tetrazol-5-yl]thio]methyl]-8-oxo-5-thia-1-azabicyclo[4.2.0]oct-2-ene-2-carboxylic acid 2-diethylaminoethyl ester hydrochloride]
In vitro Penetration Rate (apparent flux), HPPs ([1]; human, 10 %, pH 7.4): 0.52 ± 0.04 mg/cm^2/h | half-life at 9.1 mg/mL ([2]; human, plasma): 9 min

CCN(CC)CCCOC(=O)C1=CC(=NNc2ccc(S(=O)(=O)Nc3ccccn3)cc2)C=CC1=O.Cl [sulfasalazine-DEPE, 6-oxo-3-(2-[4-(N-pyridin-2-ylsulfamoyl)phenyl]hydrazono)cyclohexa-1,4-dienecarboxylic acid N,N-diethyaminopropyl ester•HCl salt]
In vitro Penetration Rate (apparent flux), HPPs of sulfonamides, sulfones, quinolones ([1]; pH 7.4): 0.21 ± 0.03 mg/cm^2/h

CCN(CC)CCOC(=O)C1N2C(=O)C(NC(=O)[C@H](NC(C)=O)c3ccccc3)C2SC1(C)C.Cl (stereo partly drawn) [6-[D(−)-α-acetamidophenylacetamidopenicillinic acid 2-diethylaminoethyl ester hydrochloride]
Half life of HPPs in plasma ([2]; human, plasma): 10 ± 1 min

3-[[(aminocarbonyl)oxy]methyl]-7-[[2-furanyl(methoxyimino)acetyl]amino]-8-oxo-5-thia-1-azabicyclo[4.2.0]oct-2-ene-2-carboxylic acid 2-diethylaminoethyl ester hydrochloride
In vitro Penetration Rate (apparent flux), HPPs ([1]; Table 1a, isolated human skin, Franz cells, 10% in 0.2 M phosphate buffer pH 7.4, n=5): 0.67 ± 0.04 mg/cm^2/h | Half life of HPPs in plasma ([2]; human plasma, 37° C.): 8 ± 1 min
